Values after ≈ are worked out from the molar mass of the structure shown.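 A five-concentration, 48-hour dose response in 96-well plates underlies each endpoint, interpolated linearly between surrounding concentrations. Abbreviation: GI50, concentration required for 50% inhibition of growth. TGI marks complete inhibition of growth.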
How the values were obtained:
Assay in all cases: DTP human tumour cell line panel, 48 h
OVCAR-8 ovarian = tested on: OVCAR-8 ovarian
SK-MEL-28 melanoma = tested on: SK-MEL-28 melanoma
A498 renal = tested on: A498 renal
OVCAR-3 ovarian = tested on: OVCAR-3 ovarian
HOP-62 NSCLC = tested on: HOP-62 NSCLC
UACC-257 melanoma = tested on: UACC-257 melanoma
HS 578T breast = tested on: HS 578T breast
HL-60(TB) leukemia = tested on: HL-60(TB) leukemia
TK-10 renal = tested on: TK-10 renal
SK-OV-3 ovarian = tested on: SK-OV-3 ovarian

O=C(O)c1ccccc1Sc1ccc(C=C2NC(=S)N(c3ccccc3)C2=O)s1
TGI (OVCAR-8 ovarian): > 100 µM
TGI (SK-MEL-28 melanoma): > 100 µM
TGI (A498 renal): > 100 µM
TGI (OVCAR-3 ovarian): > 100 µM
TGI (HOP-62 NSCLC): > 100 µM
TGI (UACC-257 melanoma): > 100 µM
TGI (HS 578T breast): > 100 µM
TGI (HL-60(TB) leukemia): 82.1 µM
TGI (TK-10 renal): > 100 µM

c1ccc(-c2cc(-c3ccccc3)nc(-c3ccncc3)c2)cc1
TGI (OVCAR-8 ovarian): > 100 µM
TGI (SK-MEL-28 melanoma): > 100 µM
TGI (OVCAR-3 ovarian): > 100 µM
TGI (HOP-62 NSCLC): 55.4 µM
TGI (UACC-257 melanoma): > 100 µM
TGI (SK-OV-3 ovarian): > 100 µM
TGI (HS 578T breast): > 100 µM
TGI (HL-60(TB) leukemia): > 100 µM
TGI (TK-10 renal): > 100 µM

O=C1OCc2nc3c(c(-c4ccccc4C(F)(F)F)c21)C(=O)OC3
TGI (OVCAR-8 ovarian): > 100 µM
TGI (SK-MEL-28 melanoma): > 100 µM
TGI (A498 renal): > 100 µM
TGI (OVCAR-3 ovarian): > 100 µM
TGI (HOP-62 NSCLC): > 100 µM
TGI (UACC-257 melanoma): > 100 µM
TGI (SK-OV-3 ovarian): > 100 µM
TGI (HL-60(TB) leukemia): > 100 µM
TGI (TK-10 renal): > 100 µM

O=[N+]([O-])c1ccc(N=P(c2ccccc2)(c2ccccc2)c2ccccc2)n2nnnc12
TGI (OVCAR-8 ovarian): > 100 µM
TGI (SK-MEL-28 melanoma): > 100 µM
TGI (A498 renal): > 100 µM
TGI (OVCAR-3 ovarian): > 100 µM
TGI (HOP-62 NSCLC): 90.2 µM
TGI (UACC-257 melanoma): > 100 µM
TGI (SK-OV-3 ovarian): 95.8 µM
TGI (HL-60(TB) leukemia): > 100 µM
TGI (TK-10 renal): > 100 µM

O=[N+]([O-])c1ccc(CSC2=C(c3ccc(Cl)cc3)S/C(=C3\SC(SCc4ccc([N+](=O)[O-])cc4)=C(c4ccc(Cl)cc4)S3)S2)cc1
TGI (OVCAR-8 ovarian): > 100 µM
TGI (SK-MEL-28 melanoma): > 100 µM
TGI (A498 renal): > 100 µM
TGI (OVCAR-3 ovarian): > 100 µM
TGI (HOP-62 NSCLC): > 100 µM
TGI (UACC-257 melanoma): > 100 µM
TGI (SK-OV-3 ovarian): > 100 µM
TGI (HS 578T breast): > 100 µM
TGI (TK-10 renal): > 100 µM

Cc1c(CCCl)c(Cl)n2c(nc3ccccc32)c1C#N
TGI (OVCAR-8 ovarian): 2.38 µM
TGI (SK-MEL-28 melanoma): 4.97 µM
TGI (A498 renal): 2.83 µM
TGI (OVCAR-3 ovarian): 2.82 µM
TGI (HOP-62 NSCLC): 4.8 µM
TGI (UACC-257 melanoma): 3.07 µM
TGI (SK-OV-3 ovarian): > 56.4 µM
TGI (HL-60(TB) leukemia): 0.627 µM
TGI (TK-10 renal): 3.84 µM

CN(CCNC(=O)c1nn(C)c2c1Cc1ccccc1-2)CCNC(=O)c1nn(C)c2c1Cc1ccccc1-2
TGI (OVCAR-8 ovarian): 42.2 µM
TGI (SK-MEL-28 melanoma): 30.9 µM
TGI (A498 renal): 28.7 µM
TGI (OVCAR-3 ovarian): 29.8 µM
TGI (HOP-62 NSCLC): 34.2 µM
TGI (UACC-257 melanoma): 27.5 µM
TGI (SK-OV-3 ovarian): 43.7 µM
TGI (HL-60(TB) leukemia): 29 µM
TGI (TK-10 renal): 29.6 µM

COC(=O)[C@@H]1CN(C(=O)Cc2ccccc2)C(=O)N1
TGI (OVCAR-8 ovarian): > 100 µM
TGI (SK-MEL-28 melanoma): > 100 µM
TGI (A498 renal): > 100 µM
TGI (OVCAR-3 ovarian): > 100 µM
TGI (HOP-62 NSCLC): > 100 µM
TGI (UACC-257 melanoma): > 100 µM
TGI (HS 578T breast): > 100 µM
TGI (HL-60(TB) leukemia): > 100 µM
TGI (TK-10 renal): > 100 µM

CCc1nnc2sc(-c3ccc(-c4ccccc4[N+](=O)[O-])o3)nn12
TGI (OVCAR-8 ovarian): > 100 µM
TGI (A498 renal): > 100 µM
TGI (OVCAR-3 ovarian): > 100 µM
TGI (HOP-62 NSCLC): > 100 µM
TGI (UACC-257 melanoma): > 100 µM
TGI (SK-OV-3 ovarian): > 100 µM
TGI (HS 578T breast): > 100 µM
TGI (HL-60(TB) leukemia): 99.2 µM
TGI (TK-10 renal): > 100 µM

Cc1nc2nnc(CCCCCCCCc3nnc4nc(C)[nH]n34)n2[nH]1
TGI (OVCAR-8 ovarian): > 100 µM
TGI (SK-MEL-28 melanoma): > 100 µM
TGI (A498 renal): > 100 µM
TGI (OVCAR-3 ovarian): > 100 µM
TGI (HOP-62 NSCLC): > 100 µM
TGI (UACC-257 melanoma): > 100 µM
TGI (SK-OV-3 ovarian): > 100 µM
TGI (HL-60(TB) leukemia): > 100 µM
TGI (TK-10 renal): > 100 µM

CC/C(CC(=O)CCC(=O)Nc1ccc(C)c(C)c1)=N\NC(=O)c1cc2ccccc2cc1O
TGI (OVCAR-8 ovarian): > 100 µM
TGI (SK-MEL-28 melanoma): 46.9 µM
TGI (OVCAR-3 ovarian): > 100 µM
TGI (HOP-62 NSCLC): > 100 µM
TGI (UACC-257 melanoma): > 100 µM
TGI (SK-OV-3 ovarian): 87.3 µM
TGI (HL-60(TB) leukemia): 8.68 µM

COc1cc2c(c(O)c1OC)C(O)C1CCC(=O)N1C2c1ccc2c(c1)OCO2 (stereo not drawn)
TGI (OVCAR-8 ovarian): > 100 µM
TGI (SK-MEL-28 melanoma): > 100 µM
TGI (A498 renal): > 100 µM
TGI (OVCAR-3 ovarian): > 100 µM
TGI (HOP-62 NSCLC): > 100 µM
TGI (UACC-257 melanoma): > 100 µM
TGI (SK-OV-3 ovarian): > 100 µM
TGI (HL-60(TB) leukemia): > 100 µM
TGI (TK-10 renal): > 100 µM

Cc1c2ccncc2c(C)c2c1[nH]c1ccc(O)cc12
GI50 (A498 renal): 0.501 µg/mL (≈ 1.91 µM)
TGI (A498 renal): 1.9 µg/mL
GI50 (OVCAR-3 ovarian): 0.0909 µg/mL (≈ 0.347 µM)
TGI (OVCAR-3 ovarian): 0.435 µg/mL
GI50 (HOP-62 NSCLC): 0.0255 µg/mL (≈ 0.0972 µM)
TGI (HOP-62 NSCLC): 0.206 µg/mL
GI50 (UACC-257 melanoma): 0.267 µg/mL (≈ 1.02 µM)
TGI (UACC-257 melanoma): 1.12 µg/mL
GI50 (SK-OV-3 ovarian): 0.0393 µg/mL (≈ 0.15 µM)
TGI (SK-OV-3 ovarian): 0.261 µg/mL
TGI (HL-60(TB) leukemia): 0.0548 µg/mL

CCn1c(=O)c2nc(SC)sc2n(-c2ccccc2)c1=S
TGI (OVCAR-8 ovarian): > 100 µM
TGI (SK-MEL-28 melanoma): > 100 µM
TGI (OVCAR-3 ovarian): > 100 µM
TGI (HOP-62 NSCLC): > 100 µM
TGI (UACC-257 melanoma): > 100 µM
TGI (SK-OV-3 ovarian): > 100 µM
TGI (HS 578T breast): > 100 µM
TGI (HL-60(TB) leukemia): 19.9 µM
TGI (TK-10 renal): > 100 µM

CC(=O)N(C(=O)CC(=O)N1N=C(C)C(N=Nc2cccc([N+](=O)[O-])c2)C1=O)c1ccc(Cl)cc1 (stereo not drawn)
TGI (OVCAR-8 ovarian): > 10 µM
TGI (SK-MEL-28 melanoma): > 10 µM
TGI (OVCAR-3 ovarian): > 10 µM
TGI (HOP-62 NSCLC): > 10 µM
TGI (UACC-257 melanoma): > 10 µM
TGI (SK-OV-3 ovarian): > 10 µM
TGI (HS 578T breast): > 10 µM
TGI (HL-60(TB) leukemia): > 10 µM
TGI (TK-10 renal): > 10 µM

Cc1cc2c3ccccc3n3c2c2c1OC1(C)CCC(C2C1)C3(C)C (stereo not drawn)
TGI (OVCAR-8 ovarian): > 25 µM
TGI (SK-MEL-28 melanoma): > 25 µM
TGI (OVCAR-3 ovarian): > 25 µM
TGI (HOP-62 NSCLC): > 25 µM
TGI (SK-OV-3 ovarian): > 25 µM
TGI (HL-60(TB) leukemia): > 25 µM
TGI (TK-10 renal): > 25 µM

COc1ccc(N2C(=O)[C@@H]3[C@@H]4CC(C)CC[C@@H]4c4c([nH]c5ccccc45)[C@@H]3C2=O)cc1 (stereo partly drawn)
TGI (OVCAR-8 ovarian): 40.1 µM
TGI (SK-MEL-28 melanoma): > 100 µM
TGI (A498 renal): 35.9 µM
TGI (OVCAR-3 ovarian): 37.2 µM
TGI (HOP-62 NSCLC): 32.8 µM
TGI (UACC-257 melanoma): > 100 µM
TGI (SK-OV-3 ovarian): 22.8 µM
TGI (HL-60(TB) leukemia): 89.4 µM
TGI (TK-10 renal): 45.6 µM

COC(=O)CC(=O)OC1C[C@@H]2CCC3C(C)(C)CCC[C@]3(C)C23CC[C@@]1(C)C3 (stereo partly drawn)
TGI (OVCAR-8 ovarian): 36.8 µM
TGI (SK-MEL-28 melanoma): 38.8 µM
TGI (OVCAR-3 ovarian): 30.7 µM
TGI (HOP-62 NSCLC): 34.1 µM
TGI (UACC-257 melanoma): 35.3 µM
TGI (SK-OV-3 ovarian): 52.4 µM
TGI (HL-60(TB) leukemia): > 100 µM
TGI (TK-10 renal): 34.3 µM

CCOC(=O)c1c(NS(=O)(=O)c2ccccc2)sc2c1CCCC2
TGI (OVCAR-8 ovarian): > 100 µM
TGI (A498 renal): > 100 µM
TGI (OVCAR-3 ovarian): 82.3 µM
TGI (HOP-62 NSCLC): > 100 µM
TGI (UACC-257 melanoma): > 100 µM
TGI (HS 578T breast): > 100 µM
TGI (HL-60(TB) leukemia): > 100 µM
TGI (TK-10 renal): > 100 µM

CN(C)CCCn1c(-c2ccc(Br)cc2)csc1=Nc1ccccc1
TGI (OVCAR-8 ovarian): 32.1 µM
TGI (SK-MEL-28 melanoma): 53.3 µM
TGI (A498 renal): 28.3 µM
TGI (OVCAR-3 ovarian): 23.3 µM
TGI (HOP-62 NSCLC): 26.4 µM
TGI (UACC-257 melanoma): 29.8 µM
TGI (SK-OV-3 ovarian): 40.4 µM
TGI (HL-60(TB) leukemia): > 100 µM
TGI (TK-10 renal): 31.7 µM

CCN(CC)C(=O)Cc1[nH][nH]c(=O)c1C(=O)N(CC)CC
TGI (OVCAR-8 ovarian): > 100 µM
TGI (SK-MEL-28 melanoma): > 100 µM
TGI (A498 renal): > 100 µM
TGI (OVCAR-3 ovarian): > 100 µM
TGI (HOP-62 NSCLC): > 100 µM
TGI (UACC-257 melanoma): > 100 µM
TGI (SK-OV-3 ovarian): > 100 µM
TGI (HL-60(TB) leukemia): > 100 µM
TGI (TK-10 renal): > 100 µM

c1cc(CSP234N5CCN2CCN3CCN4CC5)cc(CSP234N5CCN2CCN3CCN4CC5)c1
TGI (OVCAR-8 ovarian): 41.9 µM
TGI (SK-MEL-28 melanoma): 44.6 µM
TGI (OVCAR-3 ovarian): > 100 µM
TGI (HOP-62 NSCLC): > 100 µM
TGI (UACC-257 melanoma): 34.9 µM
TGI (HS 578T breast): 69.3 µM
TGI (HL-60(TB) leukemia): 28.1 µM
TGI (TK-10 renal): > 100 µM

— PubChem BioAssay (NCI)
